System: MV-4-11 cells
Assay: Gene expression microarray analysis (Affymetrix PrimeView) and GSEA
Format: cell-based, human
Details: gene C12orf56, chromosome 12 open reading frame 56; Azacitidine 1 mM; LIST F

Nc1ncn([C@@H]2O[C@H](CO)[C@@H](O)[C@H]2O)c(=O)n1 [azacitidine]
RFU, C12orf56 (ProbeSet 11735607_a_at): 185.59 RFU

Source: paper PMC5218480 (PLoS ONE, 2017)
